# From ChEMBL document CHEMBL5728913, “Indoleamine 2,3-dioxygenase inhibitor, method for preparation and use thereof” (2022)
# Several values for one entry are separate records, joined by “and”; a condition that tells them apart may be missing. Equal entries are not always repeated.
# Molecular target: Indoleamine 2,3-dioxygenase 1 (Homo sapiens, UniProt P14902)
# Assay: Inhibitory Activity Assay: 1. […] Reagent Preparation100 mM PBS:100 mM disodium hydrogen phosphate and 100 mM potassium dihydrogen phosphate mixed in a ratio of 3:5, pH 6.5IDO1 assay buffer:100 mM PBS containing 400 μM L-tryptophan, 20 mM ascorbate, 20 μM methylene blue and 1000 U/ml catalase, pH 6.530% trichloroacetic acidddH2 O solution of 30% trichloroacetic acidEhrlich reagent1% (w/v) diluted solution of 4-(dimethylamino) benzaldehyde compoundAll compounds were dissolved with DMSO. During the assay, each compound was diluted to a concentration as needed. The compound of each concentration was added to multi-wells, and the final concentration of DMSO was controlled at 1%.3. Test Methoda.) the reaction mixture was prepared by adding 50 nM IDO1 and the desired concentration of the test compound to 100 μL of IDO1 assay buffer. IDO1 and assay buffer need to be preheated to 37° C.b.) The mixture was reacted in a constant temperature water tank at 37° C. for 30 minutes.c.) 50 μL of 30% trichloroacetic acid was added.d.) The above mixture was reacted in a constant temperature water tank at 52° C. for 30 minutes.e.) The reaction mixture was centrifuged at 12000 g for 10 minutes at room temperature.f.) 100 μL of the obtained supernatant and 100 μL of Ehrlich reagent were mixed.g.) the absorbance at 480 nm was measured using an M5 microplate reader.4. Data AnalysisInhibition rate=(ODpostive−ODsample)/(ODpositive−ODnegative)*100%5. Results and Discussion
# Indoleamine 2,3-dioxygenase 1, sequence (P14902 whole entry): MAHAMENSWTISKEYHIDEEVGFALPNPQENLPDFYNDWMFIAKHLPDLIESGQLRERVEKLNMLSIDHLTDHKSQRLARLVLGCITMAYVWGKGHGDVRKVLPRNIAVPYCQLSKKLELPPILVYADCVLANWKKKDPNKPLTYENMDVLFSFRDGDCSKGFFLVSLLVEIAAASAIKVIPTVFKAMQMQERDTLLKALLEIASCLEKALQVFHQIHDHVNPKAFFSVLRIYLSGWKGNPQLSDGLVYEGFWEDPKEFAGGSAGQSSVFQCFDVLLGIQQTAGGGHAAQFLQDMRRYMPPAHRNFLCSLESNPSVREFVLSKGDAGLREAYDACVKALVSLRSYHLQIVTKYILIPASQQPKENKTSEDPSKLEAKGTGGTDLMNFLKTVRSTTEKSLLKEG
row,SMILES,IC50
1,O=C(Nc1ccccc1)ONc1nonc1/C(=N/O)Nc1ccc(F)c(Br)c1,48 nM
2,NS(=O)(=O)NCC1(CONc2nonc2/C(=N/O)Nc2ccc(F)c(Br)c2)CC1,82 nM
3,NC(=O)C(N)CCONc1nonc1/C(=N/O)Nc1ccc(F)c(Br)c1 (stereo not drawn),85 nM
4,O=C(NCCONc1nonc1/C(=N/O)Nc1ccc(F)c(Br)c1)NC1CCCC1,69 nM
5,CCCCONc1nonc1/C(=N/O)Nc1ccc(F)c(Br)c1,80 nM
6,O/N=C(\Nc1ccc(F)c(Br)c1)c1nonc1NOC1CCCNC1 (stereo not drawn),80 nM
7,CC(=O)ONc1nonc1/C(=N/O)Nc1ccc(F)c(Br)c1,92 nM
8,CSNc1nonc1/C(=N/O)Nc1ccc(F)c(Cl)c1,53 nM
9,O=C(NCCONc1nonc1/C(=N/O)Nc1ccc(F)c(Br)c1)Nc1cc(F)cc(F)c1,12 nM
10,O=C(NCCOCCONc1nonc1/C(=N/O)Nc1ccc(F)c(Br)c1)Nc1cc(F)cc(F)c1,72 nM
11,O=C1C=CC(=O)N1CCONc1nonc1/C(=N/O)Nc1ccc(F)c(Cl)c1,32 nM and 58 nM
12,O/N=C(\Nc1ccc(F)c(Br)c1)c1nonc1NO,125 nM
13,CC(C)OC(=O)NCCONc1nonc1/C(=N/O)Nc1ccc(F)c(Br)c1,36 nM and 28 nM
14,O/N=C(\Nc1ccc(F)c(Br)c1)c1nonc1NOCCN1CCCC1,108 nM
15,O=C(ONc1nonc1/C(=N/O)Nc1ccc(F)c(Br)c1)c1ccccc1,65 nM
16,NS(=O)(=O)N1CCC(ONc2nonc2/C(=N/O)Nc2ccc(F)c(Br)c2)CC1,65 nM
17,CC(=O)NCCONc1nonc1/C(=N/O)Nc1ccc(F)c(Br)c1,162 nM
18,O/N=C(\Nc1ccc(F)c(Br)c1)c1nonc1NOCCN1CCOCC1,43 nM and 38 nM
19,NC1CCC(ONc2nonc2/C(=N/O)Nc2ccc(F)c(Br)c2)CC1 (stereo not drawn),184 nM
20,NCCONc1nonc1/C(=N/O)Nc1ccc(F)c(Br)c1,35 nM and 43 nM
21,O=C1CCC(=O)N1CCONc1nonc1/C(=N/O)Nc1ccc(F)c(Br)c1,96 nM
22,O/N=C(\Nc1ccc(F)c(Br)c1)c1nonc1NOCCOc1ccccc1,120 nM
23,O/N=C(\Nc1ccc(F)c(Cl)c1)c1nonc1NS,104 nM
